Reference: EP1655289A1, “Quinazoline derivatives, process for their preparation, their use as antimitotics and pharmaceutical compositions comprising said derivatives” (EMBL, priority 2004, dated 2006)
Where two headings read alike, the source gives them in different places.

Legend:
HeLa cells [1] = test: FACS cell cycle analysis of HeLa cells after 18 h inhibitor treatment; format: cell-based, human; conditions: for cells in G2/M: FACS (control 23%)
Description: (§1) Hela cells were cultured in DMEM medium supplemented with 10 % (v/v) FCS to 60 % confluency. The culture medium was then exchanged by fresh medium containing different inhibitor or DMSO and the cells placed at 37 °C in 5 % CO2 for 18 h. The final volume of inhibitor dissolved in DMSO in the medium was always equal to or less than 0.1 % (v/v)For wash out experiments, cells were treated as described above. After 18 h cells were washed with phosphate buffered saline (PBS), covered with fresh medium and cultured for another 24 h at 37 °C in 5 % CO2.
HeLa cells were incubated for 18 hours in medium supplemented with various concentrations of either of the three compounds, monastrol or DMSO. Cells were then fixed and analyzed by FACS and immunofluorescence.
(§2) For FACS analysis, cells were scraped off the culture plate after inhibitor treatment or after wash-out and collected by centrifugation in a Heraeus Megafuge 1.0R at 1200 rpm for 5 min. The cell pellet was washed once with 5 ml PBS and then resuspended in 0.5 ml PBS. The cells were fixed by addition of 4 ml 70 % (v/v) ethanol and incubation overnight at -20 °C. Fixed cells were centrifuges at 1200 rpm for 5 min, washed with 5 ml PBS, and resuspended in 1ml PI solution (10 µg/ml propidium iodide, 100 µg/ml RNAse A, 0.05 % Triton X100 in PBS). After 30 min at 37 °C in the dark, cells were analyzed by fluorescence-activated cell sorting (FACS).

Eg5 = biological target: T1, Eg5 (Xenopus laevis, UniProt P28025); test: Microtubule-stimulated ATPase activity of Eg5 (EnzChek Phosphate Assay), IC50 determination; format: biochemical; conditions: for potency as inhibitor of Eg5 compared to monastrol: ratio of IC50 values versus monastrol
T1 construct: Xenopus laevis Eg5 corresponding to amino acids 1 to 487; made in house; host or cells: E. coli M15(pREP4)
T1 sequence (P28025 1-487): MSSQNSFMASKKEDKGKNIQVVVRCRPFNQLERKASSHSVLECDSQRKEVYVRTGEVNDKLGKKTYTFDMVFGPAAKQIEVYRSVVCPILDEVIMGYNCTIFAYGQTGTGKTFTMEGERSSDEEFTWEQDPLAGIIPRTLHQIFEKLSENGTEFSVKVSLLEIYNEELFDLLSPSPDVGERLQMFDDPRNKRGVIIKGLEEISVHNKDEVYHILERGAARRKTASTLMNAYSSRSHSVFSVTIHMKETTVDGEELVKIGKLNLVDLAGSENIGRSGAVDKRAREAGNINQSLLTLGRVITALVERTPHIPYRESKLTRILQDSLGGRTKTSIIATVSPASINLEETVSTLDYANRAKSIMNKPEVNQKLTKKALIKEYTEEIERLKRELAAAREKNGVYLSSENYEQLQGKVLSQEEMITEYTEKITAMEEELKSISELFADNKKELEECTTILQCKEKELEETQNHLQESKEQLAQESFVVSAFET
Description: The protein was expressed in E. coli M15(pREP4) for 5 h at 18 °C in LB containing 1 mM isopropylthio-β-D-galactopyranoside (IPTG), 100 µg/ml ampicillin, 25 µg/ml kanamycin, and 2% (v/v) ethanol. The harvested cells were lysed in buffer A (50 mM KPi, 100 mM NaCl, 0.1 mM MgATP protease inhibitors (Roche), pH 7.0) with 5 mM mercaptoethanol (ME). The clarified lysate was loaded onto a HIS-Select Cobalt Affi Gel column (Sigma), washed with buffer A supplemented with 10 mM imidazole, 2 mM ME, 10 % (w/v) glycerol, and eluted with 150 mM imidazole, 50 mM KCI, 10 % (w/v) glycerol, 10 mM ME, pH 7.3. The buffer was exchanged to 50 mM 3-(N-morpholino)propanesulfonic acid/KOH, 50 mM KCI, 1 mM MgCl2, 1 mM EGTA, 10 mM ME, 20 % (w/v) glycerol, pH 7.0 by dialysis. The protein concentration was adjusted to 2 mg/ml (measured by a Bradford assay using bovine serum albumin (BSA) as standard). Eg5487H was frozen in liquid ethane and stored in liquid nitrogen.
Polymerized microtubules were then stabilized by addition of 1 µl 10 mM paclitaxel (Sigma) in DMSO and incubated at 37 °C for another 20 minutes. The suspension was centrifuged at 70000 rpm at 30 °C for 30 minutes in a TLA100 rotor (Beckman). The resulting microtubule pellet was resuspended in 60 µl assay buffer (10 mM imidazole/acetate, 5 mM K-acetate, 2 mM EGTA and 4 mM Mg-acetate, pH 6.8.) supplemented with 20 µM paclitaxel at 37 °C. This microtubule suspension was stored at room temperature. The final concentration was 80 µM polymerized tubulin as determined by Bradford using BSA as a standard.
Final concentrations were 40 nM Eg5487H, 4 µM microtubules (tubulin dimer concentration as determined by Bradford using BSA as standard), and 1 mM MgATP. The ATPase activity was measured as an increase of absorbance at 365 nm within 2 h at room temperature. 1 % (v/v) inhibitor in DMSO at different concentrations (or 1 % (v/v) DMSO as a control) was added at the start of the experiment. At least 4 measurements were performed per condition and the results were then averaged. The microtubule-stimulated activity of Eg5487H was obtained by subtracting background activity (measured with microtubules only in the absence of Eg5487H) from measurements containing Eg5487H and microtubules. The IC50 was determined by assuming non-competitive enzyme inhibition and fitting the theoretically expected dependence of the enzym activity on the inhibitor concentration to the experimental microtubule-stimulated ATPase activities. The equation used for the fit was v = vmax * IC50 / ([inhibitor] + IC50) + vres with v being the measured relative ATPase rate, vmax being the maximum ATPase rate and vres being a residual activity at high inhibitor concentration.

Xenopus egg extract = test: Spindle assembly in Xenopus egg extracts; design: species or system Xenopus laevis
Description: Cytostatic factor (CSF)-arrested Xenopus laevis egg extracts were prepared as described previously. Spindle assembly experiments were performed in cycled extracts with sperm nuclei and tetramethylrhodamine labelled tubulin as described. 1 % (v/v) (or less) inhibitor dissolved in DMSO was added to the extract prior to spindle assembly. As control 1% DMSO was added to the extract. Spindles were fixed and centrifuged onto coverslips. The DNA was stained with DAPI. Structures were then visualized by epi-fluorescence microscopy (Zeiss Axiovert 135 equipped with a Roper CoolSnap HQ camera). Spindles and aberrant microtubule structures were then counted.

HeLa cells [2] = test: Wash-out experiment in HeLa cells (18 h treatment, 24 h fresh medium); format: cell-based, human; conditions: 24 h in fresh medium
Description: as §1, §2
One useful characteristic of monastrol is that is non-toxic for the cells when applied transiently; once washed out cells resume mitosis. […]

[3] = microtubule-stimulated ATPase activity, 40 nM Eg5487H, 4 µM microtubules, 1 mM MgATP, read-out: IC50
[4] = 10 µM added to Xenopus egg extract

| SMILES | cells in G2/M (HeLa cells [1]; 10 µM) | IC50 (Eg5; [3]) | potency as inhibitor of Eg5 compared to monastrol (Eg5) | bipolar spindle formation (Xenopus egg extract; [4]) | cell cycle distribution (HeLa cells [1]; 0.1 µM, FACS) | cells in G2/M (HeLa cells [1]; 0.5 µM) | cells in G2/M (HeLa cells [1]; 1 µM) | IC50 (Eg5) | bipolar spindle formation (Xenopus egg extract; 1 µM added to Xenopus egg extract) | cells in G2/M (HeLa cells [1]; 100 µM) | toxicity for the cells when applied transiently (HeLa cells [2]) |
| --- | --- | --- | --- | --- | --- | --- | --- | --- | --- | --- | --- |
| O=C1CCCC2=C1C(c1cccc(O)c1)NC(=S)N2 (stereo not drawn) [Example 1, 4-(3-Hydroxyphenyl)-5-oxo-3,4,5,6,7,8-hexahydroquinazoline-2(1H)-thione] | 77% | 2 µM | more than ten times more potent | inhibited bipolar spindle formation | – | – | – | – | – | – | – |
| CC1(C)CC(=O)C2=C(C1)NC(=S)NC2c1cccc(O)c1 (stereo not drawn) [Example 2, 7,7-Dimethyl-4-(3-hydroxyphenyl)-5-oxo-3,4,5,6,7,8-hexahydroquinazoline-2(1H)-thione] | – | – | more than 100 times | – | No cell cycle distribution abnormalities | 47% | 75% | 0.2 µM | inhibited bipolar spindle formation | – | – |
| Oc1cccc(C2NC(=S)NC3=C2C(O)CCC3)c1 (stereo not drawn) [Example 3, 4-(3-Hydroxyphenyl)-5-hydroxy-3,4,5,6,7,8-hexahydroquinazoline-2(1H)-thione] | 77% | 2 µM | more than ten times more potent | inhibited bipolar spindle formation | – | – | – | – | – | – | – |
| CCOC(=O)C1=C(C)NC(=S)NC1c1cccc(O)c1 (stereo not drawn) [monastrol, 4-(3-hydroxyphenyl)-5-ethoxycarbonyl-6-methyl-3,4-dihydropyrimidin-2(1H), reference compound] | 31% | – | – | – | – | – | – | 30 µM | – | 74% | non-toxic |
